{"source": "patent US20220315967A1", "about": "“METHODS FOR PRODUCING D-TRYPTOPHAN AND SUBSTITUTED D-TRYPTOPHANS” (priority 2019, published 2022)", "key": {"IvoA": {"molecular_target": "T1, IvoA (Emericella nidulans, UniProt C8V7P4)", "T1 construct": "The full-length wild-type IvoA and mutants were expressed in S. cerevisiae JHY686 strain; octahistidine (His8) (N); made in house; host or cells: Saccharomyces cerevisiae JHY686", "T1 sequence (C8V7P4 other isoform, or with tags, fused parts or gaps)": "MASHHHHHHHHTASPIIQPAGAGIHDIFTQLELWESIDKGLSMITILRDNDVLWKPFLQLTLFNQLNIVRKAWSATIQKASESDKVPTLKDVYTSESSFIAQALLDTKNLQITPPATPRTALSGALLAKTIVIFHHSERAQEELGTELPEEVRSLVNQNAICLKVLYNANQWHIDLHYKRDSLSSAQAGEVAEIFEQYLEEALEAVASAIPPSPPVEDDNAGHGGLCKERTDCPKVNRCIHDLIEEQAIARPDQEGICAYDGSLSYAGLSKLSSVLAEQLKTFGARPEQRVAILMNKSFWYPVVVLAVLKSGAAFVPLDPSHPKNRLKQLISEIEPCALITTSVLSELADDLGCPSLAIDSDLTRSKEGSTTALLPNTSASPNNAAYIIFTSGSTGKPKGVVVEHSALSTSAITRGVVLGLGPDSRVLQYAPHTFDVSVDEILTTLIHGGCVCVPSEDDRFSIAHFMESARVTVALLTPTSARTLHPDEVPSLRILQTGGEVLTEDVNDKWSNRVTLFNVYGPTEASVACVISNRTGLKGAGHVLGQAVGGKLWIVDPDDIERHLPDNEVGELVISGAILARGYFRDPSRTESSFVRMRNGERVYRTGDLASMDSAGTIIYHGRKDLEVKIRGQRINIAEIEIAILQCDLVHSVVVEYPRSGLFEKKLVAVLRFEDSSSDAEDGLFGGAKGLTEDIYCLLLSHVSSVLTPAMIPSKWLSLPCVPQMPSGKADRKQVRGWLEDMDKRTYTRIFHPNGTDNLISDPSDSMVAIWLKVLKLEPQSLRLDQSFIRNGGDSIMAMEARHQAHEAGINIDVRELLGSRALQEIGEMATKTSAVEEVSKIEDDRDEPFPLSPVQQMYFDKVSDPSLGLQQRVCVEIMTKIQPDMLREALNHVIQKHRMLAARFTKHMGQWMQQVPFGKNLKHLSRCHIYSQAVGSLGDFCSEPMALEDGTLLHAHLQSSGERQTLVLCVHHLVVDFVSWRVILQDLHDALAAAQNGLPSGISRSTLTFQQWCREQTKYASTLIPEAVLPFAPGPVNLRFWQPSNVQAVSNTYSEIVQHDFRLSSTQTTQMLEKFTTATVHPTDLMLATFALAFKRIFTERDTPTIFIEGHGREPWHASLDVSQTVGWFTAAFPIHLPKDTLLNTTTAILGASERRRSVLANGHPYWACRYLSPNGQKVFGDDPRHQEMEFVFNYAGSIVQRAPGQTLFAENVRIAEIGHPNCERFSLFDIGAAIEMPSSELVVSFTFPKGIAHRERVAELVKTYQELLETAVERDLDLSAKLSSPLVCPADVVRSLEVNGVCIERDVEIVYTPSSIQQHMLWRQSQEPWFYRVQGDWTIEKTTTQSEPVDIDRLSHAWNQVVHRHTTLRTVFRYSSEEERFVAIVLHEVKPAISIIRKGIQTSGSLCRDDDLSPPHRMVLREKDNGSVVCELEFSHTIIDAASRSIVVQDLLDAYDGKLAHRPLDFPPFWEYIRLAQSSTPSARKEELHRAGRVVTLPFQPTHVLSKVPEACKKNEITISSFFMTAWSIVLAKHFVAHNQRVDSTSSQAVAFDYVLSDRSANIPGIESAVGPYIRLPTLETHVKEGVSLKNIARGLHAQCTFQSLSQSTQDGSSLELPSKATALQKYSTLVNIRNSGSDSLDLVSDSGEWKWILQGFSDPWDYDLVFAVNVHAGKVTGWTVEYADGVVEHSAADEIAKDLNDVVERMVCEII", "assay": "Biocatalytic stereoinversion or deracemization of tryptophan and substituted tryptophans by IvoA (chiral-HPLC)", "assay_type": "biochemical, Aspergillus nidulans", "conditions": "for ee (%): ee of D-enantiomer, 1.5 mM substrates, 5 μM IvoA, 5 mM ATP, 10 mM MgCl2, 100 mM K2HPO4 buffer, pH 7.5", "protocol": "[…] The solvent was removed in vaccuo by speedvac and the residue was dissolved in ethanol and analyzed by chiral-HPLC by using a Crownpak® CR(+) column (150 mm×4 mm×3.5 μm, Daicel) at room temperature. The mobile phase was aq. HClO4 1% (w/v) supplemented with 15% (v/v) MeOH and the flow rate was 1.0 ml/min."}, "IvoA A domain": {"molecular_target": "T2, IvoA A domain (Emericella nidulans, UniProt C8V7P4, S785A)", "T2 construct": "The full-length wild-type IvoA and mutants were expressed in S. cerevisiae JHY686 strain; octahistidine (His8) (N); made in house; host or cells: Saccharomyces cerevisiae JHY686", "T2 sequence (C8V7P4 whole entry S785A)": "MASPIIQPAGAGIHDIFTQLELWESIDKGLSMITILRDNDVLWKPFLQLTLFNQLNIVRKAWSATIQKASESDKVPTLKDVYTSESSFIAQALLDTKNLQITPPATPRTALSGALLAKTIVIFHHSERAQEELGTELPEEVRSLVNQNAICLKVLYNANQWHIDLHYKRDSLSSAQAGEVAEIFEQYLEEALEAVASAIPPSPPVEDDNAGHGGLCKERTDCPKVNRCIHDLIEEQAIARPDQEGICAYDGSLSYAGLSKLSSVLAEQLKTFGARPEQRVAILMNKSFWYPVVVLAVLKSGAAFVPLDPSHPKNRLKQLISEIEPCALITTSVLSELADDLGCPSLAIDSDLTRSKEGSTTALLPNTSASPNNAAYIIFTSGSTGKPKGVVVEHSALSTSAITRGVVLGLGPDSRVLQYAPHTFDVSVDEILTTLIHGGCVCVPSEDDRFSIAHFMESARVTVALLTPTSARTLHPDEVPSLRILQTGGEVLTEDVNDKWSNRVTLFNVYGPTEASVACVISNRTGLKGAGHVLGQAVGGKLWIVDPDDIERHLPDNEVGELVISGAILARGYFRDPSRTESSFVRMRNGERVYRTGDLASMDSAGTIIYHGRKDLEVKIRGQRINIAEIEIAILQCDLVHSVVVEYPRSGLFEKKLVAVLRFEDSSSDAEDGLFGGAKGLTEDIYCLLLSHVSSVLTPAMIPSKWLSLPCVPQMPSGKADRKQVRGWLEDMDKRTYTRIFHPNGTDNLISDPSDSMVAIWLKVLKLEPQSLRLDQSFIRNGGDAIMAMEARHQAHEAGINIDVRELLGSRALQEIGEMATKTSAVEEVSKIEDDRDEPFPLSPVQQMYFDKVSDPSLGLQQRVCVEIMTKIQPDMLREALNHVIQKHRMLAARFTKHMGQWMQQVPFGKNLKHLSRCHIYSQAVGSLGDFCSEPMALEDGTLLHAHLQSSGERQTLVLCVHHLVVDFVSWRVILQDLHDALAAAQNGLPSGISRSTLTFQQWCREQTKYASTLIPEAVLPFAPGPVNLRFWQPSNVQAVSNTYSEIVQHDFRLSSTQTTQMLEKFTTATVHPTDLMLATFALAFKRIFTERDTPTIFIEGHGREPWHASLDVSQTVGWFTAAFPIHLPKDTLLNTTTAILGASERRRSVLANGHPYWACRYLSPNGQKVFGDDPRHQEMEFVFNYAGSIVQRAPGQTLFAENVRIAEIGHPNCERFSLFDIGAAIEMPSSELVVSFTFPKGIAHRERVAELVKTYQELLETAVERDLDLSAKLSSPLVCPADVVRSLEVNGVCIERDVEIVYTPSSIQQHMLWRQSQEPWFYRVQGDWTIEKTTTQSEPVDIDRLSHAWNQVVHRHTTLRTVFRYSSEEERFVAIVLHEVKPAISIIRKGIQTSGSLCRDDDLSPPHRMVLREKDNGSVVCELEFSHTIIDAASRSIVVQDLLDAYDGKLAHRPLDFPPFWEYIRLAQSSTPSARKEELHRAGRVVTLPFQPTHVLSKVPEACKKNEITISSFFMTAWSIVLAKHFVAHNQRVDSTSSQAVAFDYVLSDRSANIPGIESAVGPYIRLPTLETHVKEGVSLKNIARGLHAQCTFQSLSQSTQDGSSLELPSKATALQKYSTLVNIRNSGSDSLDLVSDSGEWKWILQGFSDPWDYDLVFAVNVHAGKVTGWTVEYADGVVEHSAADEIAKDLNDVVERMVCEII", "assay": "Hydroxylamine-based colorimetric adenylation assay", "assay_type": "biochemical, Aspergillus nidulans", "protocol": "FIG. 9 provides data showing Hydroxylamine-based colorimetric assay for studying substrate specificity of IvoA A domain. The reaction condition is 2 μM of IvoA-T^0+3 mM of ATP+0.1 mM of carboxylic acid substrate+15 mM hydroxylamine+15 mM MgCl2 in Tris buffer (pH 8.0). The reaction is quenched after 3 hrs by addition of equivalent volume (150 μL) of stopping solution (10% (w/v) FeCl3.H2O and 3.3% (w/v) trichloroacetic acid dissolved in 0.7 M HCl). The precipitated enzyme was removed by centrifugation and the supernatant was measured for its absorbance at 540 nm.\nFIG. 19 provides data showing Adenylation assay of IvoA A domain with substituted tryptophan amino acids. The reaction was performed similarly according to the assay described in the caption of FIG. 9."}, "IvoA-C": {"molecular_target": "T3, IvoA-C (Emericella nidulans, UniProt C8V7P4)", "T3 construct": "were incubated with standalone IvoA C domain at pH 6.9; hexahistidine (His6) with TEV protease site (N); made in house; host or cells: E. coli BL21(DE3)", "T3 sequence (C8V7P4 1325-1477)": "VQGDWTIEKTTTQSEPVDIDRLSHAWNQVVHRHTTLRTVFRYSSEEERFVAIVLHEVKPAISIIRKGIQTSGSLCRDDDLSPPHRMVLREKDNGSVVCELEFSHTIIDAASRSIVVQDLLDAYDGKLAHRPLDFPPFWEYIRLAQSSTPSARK", "assay": "Thioesterase assay of standalone IvoA-C with synthetic thioester substrates", "assay_type": "biochemical, Aspergillus nidulans", "conditions": "pH 6.9, boiled enzyme control", "protocol": "FIG. 17 provides data and associated schematics for an In vitro assay of IvoA-C with synthetic thioester substrates. Synthetic thioester substrates (DL-tryptophan-S—N-acetylcysteamine, DL-Trp-SNAC: D-tryptophan-S-pantatheine, D-Trp-pant) were incubated with standalone IvoA C domain at pH 6.9. Enzymes were boiled to measure the nonenzymatic hydrolysis. Free tryptophan and tryptophanyl thioesters were separated by HPLC.\nThe thioesterase activity assay of standalone IvoA-C was performed in ammonium acetate buffer (20 mM, pH=6.9). Typically, 5 mM synthetic substrate (5% DMSO) was incubated with 50 μM enzyme. The reaction was analyzed by HPLC. Boiled enzyme was used as control to measure the background nonenzymatic hydrolysis."}, "[1]": {"conditions": "enzyme >50 μM, overnight incubation", "procedure": "The reaction condition is 100 μM of IvoA+2 mM of ATP+1 mM of L-tryptophan+1 mM of AcCoA+5 mM MgCl2 in phosphate buffer (pH 7.5).\nAcetyltryptophan acetyltransferase activity was performed by incubating 1-100 μM IvoA with 1 mM D-tryptophan or other substrates with 1 mM acetyl-CoA or 1 mM acetyl-phosphate in 100 mM phosphate buffer (pH 7.5). The reaction mixture was incubated at room temperature and the reaction was quenched at different time interval by mixing with 5-fold volume of methanol. The mixture was clarified by centrifugation to remove protein and salts, and the supernatant was dried in vaccuo by using speedvac. The residue was dissolved in methanol and subjected to LC-MS analysis. For ATP-dependent acetyltransferase activity, 1 mM LD-tryptophan, 5 mM ATP, 1 mM CoA and 5 mM MgCl2 were used."}, "[2]": {"assay": "Apparent steady-state kinetics of L-tryptophan stereoinversion by IvoA and mutants (chiral-HPLC quantification of D-tryptophan)", "assay_type": "biochemical, Aspergillus nidulans", "conditions": "for kcat^app / Km: L-tryptophan stereoinversion; for Km: read-out: Km^app", "protocol": "FIG. 11 provides data showing the Apparent steady-state kinetics of IvoA catalyzed stereoinversion. […] The kinetic constants were shown in the main text. For WT, 1 μM enzyme was used in each assay and the reaction was quenched after 2 min. For E0 mutant, 10 μM enzyme was used in each assay and the reaction was quenched after 60 min. For C0 mutant, 50 μM enzyme was used in each assay and the reaction was quenched after 60 min.\nChiral-resolution allowed us to determine the apparent steady-state kinetics by quantifying D-tryptophan formation (Table 1, FIG. 11). […] Both E and C domains are catalytically important for IvoA, as inactivating either domain by mutating the catalytic histidine residues (H963A and H1428A) substantially compromised the apparent turnover number kcat (420-fold by E^0 while 4700-fold by C^0).\nThe ATP-dependent stereoinversion activity was typically performed with 2-5 μM IvoA, 1 mM L/D-tryptophan, 3 mM ATP and 10 mM MgCl2 in 100 mM phosphate buffer (pH 7.5), and the reaction was quenched by mixing with 5-volume of methanol. The solvent was removed in vaccuo by speedvac and the residue was dissolved in ethanol and analyzed by chiral-HPLC by using a Crownpak® CR(+) column (150 mm×4 mm×3.5 μm, Daicel) at room temperature. The mobile phase was aq. HClO4 1% (w/v) supplemented with 15% (v/v) MeOH and the flow rate was 1.0 ml/min."}}, "note": "Like-named read-outs stand apart in the source and are kept apart here.", "data": [{"compound": "Cc1cccc2c(CC(N)C(=O)O)c[nH]c12", "note": "(stereo not shown) [Entry 17]", "values": [{"measurement": "ee (%)", "setting": "IvoA", "result": ">99", "unit": "%"}]}, {"compound": "N[C@@H](Cc1c[nH]c2ccccc12)C(=O)O", "note": "[Entry 1, L-tryptophan]", "values": [{"measurement": "activation by A domain", "setting": "IvoA A domain", "result": "preferred substrate"}, {"measurement": "time to complete conversion of L-tryptophan to D-tryptophan", "setting": "IvoA; 1 mM L-tryptophan, chiral-HPLC", "result": 3, "unit": "h"}, {"measurement": "ee (%)", "setting": "IvoA", "result": ">99", "unit": "%"}]}, {"compound": "NC(Cc1c[nH]c2c(Br)cccc12)C(=O)O", "note": "(stereo not shown) [Entry 12]", "values": [{"measurement": "conversion by IvoA / substrate quality", "setting": "IvoA", "result": "poor substrates"}, {"measurement": "ee (%)", "setting": "IvoA", "result": 87, "unit": "%"}]}, {"compound": "Cc1ccc2c(CC(N)C(=O)O)c[nH]c2c1", "note": "(stereo not shown) [Entry 16]", "values": [{"measurement": "ee (%)", "setting": "IvoA", "result": 97, "unit": "%"}]}, {"compound": "Cc1[nH]c2ccccc2c1CC(N)C(=O)O", "note": "(racemic) [Entry 13, 2-Me-DL-tryptophan]", "values": [{"measurement": "activation by A domain", "setting": "IvoA A domain", "result": "inefficient activation"}, {"measurement": "conversion by IvoA / substrate quality", "setting": "IvoA", "result": "No conversion"}, {"measurement": "ee (%)", "setting": "IvoA", "result": 1.3, "unit": "%"}]}, {"compound": "NC(Cc1c[nH]c2ccc([N+](=O)[O-])cc12)C(=O)O", "note": "(stereo not shown) [Entry 4]", "values": [{"measurement": "conversion by IvoA / substrate quality", "setting": "IvoA", "result": "poor substrates"}, {"measurement": "ee (%)", "setting": "IvoA", "result": 44, "unit": "%"}]}, {"compound": "CC(=O)NCCSC(=O)C(N)Cc1c[nH]c2ccccc12", "note": "(racemic) [DL-Trp-SNAC, DL-tryptophan-S—N-acetylcysteamine]", "values": [{"measurement": "hydrolysis by IvoA-C versus nonenzymatic", "setting": "IvoA-C", "result": "not good substrate"}]}, {"compound": "NC(Cc1c[nH]c2cccc(F)c12)C(=O)O", "note": "(stereo not shown) [Entry 5]", "values": [{"measurement": "ee (%)", "setting": "IvoA", "result": ">99", "unit": "%"}]}, {"compound": "NC(Cc1c[nH]c2cc(Cl)ccc12)C(=O)O", "note": "(stereo not shown) [Entry 9]", "values": [{"measurement": "ee (%)", "setting": "IvoA", "result": 98, "unit": "%"}]}, {"compound": "Cc1ccc2[nH]cc(CC(N)C(=O)O)c2c1", "note": "(stereo not shown) [Entry 15]", "values": [{"measurement": "ee (%)", "setting": "IvoA", "result": ">99", "unit": "%"}]}, {"compound": "CC(C)(CO)[C@@H](O)C(=O)NCCC(=O)NCCSC(=O)[C@H](N)Cc1c[nH]c2ccccc12", "note": "[D-Trp-pant, D-tryptophan-S-pantatheine]", "values": [{"measurement": "hydrolysis by IvoA-C versus nonenzymatic", "setting": "IvoA-C", "result": "not good substrate"}]}, {"compound": "NC(Cc1c[nH]c2ccc(F)cc12)C(=O)O", "note": "(stereo not shown) [Entry 6]", "values": [{"measurement": "ee (%)", "setting": "IvoA", "result": ">99", "unit": "%"}]}, {"compound": "N#Cc1ccc2[nH]cc(CC(N)C(=O)O)c2c1", "note": "(stereo not shown) [Entry 3]", "values": [{"measurement": "conversion by IvoA / substrate quality", "setting": "IvoA", "result": "poor substrates"}, {"measurement": "ee (%)", "setting": "IvoA", "result": 63, "unit": "%"}]}, {"compound": "Cc1cccc2[nH]cc(CC(N)C(=O)O)c12", "note": "(stereo not shown) [Entry 14]", "values": [{"measurement": "ee (%)", "setting": "IvoA", "result": ">99", "unit": "%"}]}, {"compound": "COc1ccc2[nH]cc(C[C@H](N)C(=O)O)c2c1", "note": "[Entry 2, 5-OMe-L-tryptophan]", "values": [{"measurement": "ee (%)", "setting": "IvoA", "result": ">99", "unit": "%"}]}, {"compound": "NC(Cc1c[nH]c2cc(Br)ccc12)C(=O)O", "note": "(stereo not shown) [Entry 11]", "values": [{"measurement": "conversion by IvoA / substrate quality", "setting": "IvoA", "result": "poor substrates"}, {"measurement": "ee (%)", "setting": "IvoA", "result": 75, "unit": "%"}]}, {"compound": "N[C@H](Cc1c[nH]c2ccccc12)C(=O)O", "note": "[D-tryptophan]", "values": [{"measurement": "conversion by IvoA / substrate quality", "setting": "IvoA", "result": "cannot convert"}]}, {"compound": "NC(Cc1c[nH]c2ccc(Cl)cc12)C(=O)O", "note": "(stereo not shown) [Entry 8]", "values": [{"measurement": "ee (%)", "setting": "IvoA", "result": ">99", "unit": "%"}]}, {"compound": "WT: wild-type single-module nonribosomal peptide synthetase IvoA from Aspergillus nidulans", "values": [{"measurement": "kobs^app of N-acetyl-D-tryptophan formation", "setting": "[1]", "result": "< 0.1", "unit": "h⁻¹"}, {"measurement": "kcat^app", "setting": "[2]", "result": "38 ± 3", "unit": "min⁻¹"}, {"measurement": "kcat^app", "setting": "[2]; listed as IvoA", "result": 38, "unit": "min⁻¹"}, {"measurement": "Km", "setting": "[2]; listed as IvoA", "result": "~50", "unit": "µM"}, {"measurement": "Km", "setting": "[2]", "result": "50 ± 10", "unit": "µM"}, {"measurement": "Ki", "setting": "[2]; substrate inhibition by L-tryptophan, read-out: Ki^app (substrate inhibition)", "result": 4, "unit": "mM"}]}, {"compound": "NC(Cc1c[nH]c2cc(F)ccc12)C(=O)O", "note": "(stereo not shown) [Entry 7]", "values": [{"measurement": "ee (%)", "setting": "IvoA", "result": ">99", "unit": "%"}]}, {"compound": "NC(Cc1c[nH]c2ccc(Br)cc12)C(=O)O", "note": "(stereo not shown) [Entry 10]", "values": [{"measurement": "ee (%)", "setting": "IvoA", "result": ">99", "unit": "%"}]}]}
